Source: patent USRE38551E1, “Anticonvulsant enantiomeric amino acid derivatives” (priority 1996, dated 2004)

What was measured:
[1] = tested on: maximal electroshock (MES) induced seizure; experiment: maximal electroshock (MES) seizure test, mice (ip); assay type: in vivo; settings: for ED50: Mus musculus
Text: (§1) Compounds were screened for anticonvulsant activity in both male albino Carthworth Farms No. 1 mice (ip route) and male albino Sprague Dawley rats [oral (po) route]. Activity was established using the electrical (maximal electroshock or MES) test. In the MES test, a drop of electrolyte solution with anesthetic (0.5% butacaine hemisulfate in 0.9% sodium chloride) was used in the eyes of the animals prior to positioning the corneal electrodes and delivery of current. […] Protection endpoints were defined as the abolition of the hind limb tonic extensor component of the induced seizure. In mice, effects of compounds on forced spontaneous motor activity were determined using the rotorod test. […] Normally under these conditions, mice maintain their balance almost indefinitely. In rats, motor impairment is assessed by observing for overt evidence of ataxia, abnormal gait and stance, and/or loss of placing response and muscle tone. In the mouse identification screening study all compounds were given at three dose levels (30, 100, 300 mg/kg) and two time periods (0.5 hours, 4 hours). Typically, in the MES seizures test one animal was tested at 30 mg/kg and 300 mg/kg, and three animals at 100 mg/kg. In the rotored toxicity test four animals were tested at 30 mg/kg, and 300 mg/kg, and eight animals at 100 mg/kg.
(§2) The quantitative determination of the median effective (ED50) and toxic doses (TD50) was conducted at previously calculated times of peak effect. Groups of at least eight animals were tested using different doses of test compound until at least two points wee determined between 100 and 0% protection and minimal motor impairment.

[2] = tested on: maximal electroshock (MES) induced seizure; experiment: maximal electroshock (MES) seizure test, rats (po); assay type: in vivo; settings: for ED50: Rattus norvegicus
Text: as §1, §2

[3] = tested on: liver microsomal system; experiment: 7-day liver microsomal studies; assay type: in vivo, rats; settings: rat, in vivo, 48 mg/kg
Experimental: Two of the three groups of animals subjected to the hexobarbital sleep time test (chronically treated and vehicle control groups) were continued on their respective original treatment regimen for two days (days 6 and 7) and 24 hours later (day 8) subjected to liver microsomal studies. The rats were decapitated and the livers perfused with 0.9% sodium chloride solution. The livers were removed, weighed, and homogenized in 0.25M sucrose. Microsomes were prepared and their drug metabolizing capabilities (microsomal protein yield; cytochrome P-450 concentration; p-nitroanisole O-demethylase and NADPH cytochrome c reductase activities; norbenzphetamine MI complex formation; and glucuronyl transferase, erythromycin demethylase, and ethylmorphine demethylase activities) measured (Arch. Biochem. Biophys. 143: 318-329, 1971).

[4] = tested on: maximal electroshock (MES) induced seizure; experiment: 5-day chronic treatment tolerance study (MES test); assay type: in vivo; settings: rats
Experimental: Compound C, i.e., N-acetyl-D, L-phenylglycine N-benzylamide was subjected to 5-day chronic treatment on anticonvulsant activity (maximal electroshock). 3 groups of 8 animals each were treated as follows. One group was given the MES ED50 of the test drug for 5 days; the second group was given the requisite volume of the vehicle (0.04 ml/10 g body wt.) for 4 days and a single dose (MES ED50) of the test drug on day 5; and the third group was given the requisite volume of the vehicle daily for 5 days. At the time of peak effect of the candidate substance on day 5, all groups were subjected to the MES test and the number of animals protected recorded. Seizure components of the unprotected animals were timed to the nearest 10th of a second and the extensor/flexor (E/F) ratio, S.E., and p value determined. Since extensor duration decreases and flexor duration increases as a maximal seizure is attenuated, the E/F ratio provides a measure of seizure severity.

| SMILES | MES, ED50 ([1]; mice, ip, at time of peak effect (hours in brackets)) | MOUSE anticonvulsant dose ED50 MES ([1]; mouse, i.p. (Table 6)) [mg/kg] | RAT anticonvulsant ED50 MES ([2]; rat, oral (Table 6)) [mg/kg] | MES, ED50 ([2]; rat, po, at time of peak effect) | ED50 ([1]; ip, read-out: MES, ED50) [mg/kg] | ED50 ([1]; ip, read-out: MOUSE anticonvulsant dose ED50 MES) [mg/kg] | PI protective index (TD50/MES ED50) ([1]; mice, ip) | Ratio to MES ([1]; mouse, i.p., Neurotox/MES (Table 6)) | ED50 ([2]; po, read-out: MES, ED50) [mg/kg] | ED50 ([2]; po, read-out: RAT anticonvulsant ED50 MES) [mg/kg] | Ratio to MES ([2]; rat, oral, Neurotox/MES (Table 6)) | PI protective index (TD50/MES ED50) ([2]; rat, po) | NADPH cytochrome c reductase activity ([3]; Sprague Dawley, 7 days) [nmol/mg/min] | p-nitroanisole O-demethylase activity ([3]; Sprague Dawley, 7 days) [nmol/mg/min] | liver microsomal enzyme activity [3] | tolerance to the anticonvulsant effects (MES Test) ([4]; 5 daily doses of 48 mg/kg) | animals protected, MES test ([4]; chronically treated group, 5 daily doses of 48 mg/kg) | animals protected, MES test ([4]; single dose acute control group, MES ED50 (48 mg/kg)) |
| --- | --- | --- | --- | --- | --- | --- | --- | --- | --- | --- | --- | --- | --- | --- | --- | --- | --- | --- |
| COC[C@@H](NC(C)=O)C(=O)NCc1ccccc1 [Ex. 1, 2, (R)-N-Benzyl-2-Acetamide-3-methoxypropionamide] | 4.5 [0.5] mg/kg | 4.46 | 3.90 | 3.9 [0.5] mg/kg |  |  |  |  |  |  |  |  |  |  |  |  |  |  |
| CC(=O)NC(C)C(=O)NCc1ccccc1 (racemic) [compound 1, N-Acetyl-D,L-alanine-N′-benzylamide] |  |  |  |  | 76.5 | 76.5 | 5.9 | 5.9 | 24.2 | 48.2 | 20.8 | >20.8 | 105.0 ± 4.1 | 0.62 ± 0.07 | unaltered | does not induce tolerance | 3/8 | 4/8 |
